Source: publication PMC9138994 (Biomolecules, 2022)
pKi: −log10 of the molar value. Marks after values point to notes of the source that are not given here. Values belong to the compound of their own block, whether it stands above or below them.

Tests used:
human 5-HT1A = molecular target: T1, human 5-HT1A (Homo sapiens, UniProt P08908); test: Radioligand displacement assay at 5-HT1A ([3H]-8-OH-DPAT, HEK293 cells); type: binding; conditions: HEK293 cells stably expressing h5-HT1A, read-out: Ki (n), 5-HT1A
T1 construct: expressed in transfected cells; host or cells: HEK293
T1 sequence (P08908 1-422): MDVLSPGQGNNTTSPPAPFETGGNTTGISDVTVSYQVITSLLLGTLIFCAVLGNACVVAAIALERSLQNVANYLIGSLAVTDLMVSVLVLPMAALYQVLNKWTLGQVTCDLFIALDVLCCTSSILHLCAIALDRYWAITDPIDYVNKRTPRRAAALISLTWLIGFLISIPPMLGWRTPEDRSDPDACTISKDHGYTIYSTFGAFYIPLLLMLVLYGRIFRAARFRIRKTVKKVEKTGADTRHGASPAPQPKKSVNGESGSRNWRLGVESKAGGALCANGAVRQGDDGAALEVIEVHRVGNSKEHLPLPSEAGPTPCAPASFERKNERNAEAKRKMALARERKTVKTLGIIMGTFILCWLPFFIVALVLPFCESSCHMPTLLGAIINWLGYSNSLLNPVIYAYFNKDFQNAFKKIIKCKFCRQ
Description: HEK293 cells with a stable expression of human 5-HT1A, 5-HT6, 5-HT7b, and D2L (prepared with the use of Lipofectamine 2000), or CHO-K1 cells with plasmids containing the sequence coding for the human serotonin 5-HT2A receptor (PerkinElmer), were maintained at 37 °C in a humidified atmosphere with 5% CO2 and grown in Dulbecco’s Modified Eagle Medium containing 10% dialyzed fetal bovine serum and 500 µg/mL G418 sulfate. For membrane preparation, cells were subcultured in 150 cm^2 flasks, grown to 90% confluence, washed twice with prewarmed to 37 °C phosphate buffered saline (PBS) and pelleted by centrifugation (200× g) in PBS containing 0.1 mM EDTA and 1 mM dithiothreitol. Prior to membrane preparation, the pellets were stored at −80 °C.
Cell pellets were thawed and homogenized in 10 volumes of assay buffer using an Ultra Turrax tissue homogenizer, and were then centrifuged twice at 35,000× g for 15 min at 4 °C, with incubations for 15 min at 37 °C in between. […] The process of equilibration was terminated by rapid filtration through Unifilter plates with a 96-well cell harvester and the radioactivity retained on the filters was quantified on a Microbeta plate reader (PerkinElmer, Waltham, MA, USA). […] The inhibition constants (Ki) were calculated from the Cheng-Prusoff equation [38]. Results are expressed as means of two separate experiments.

C57BL/6 mice = test: Tail suspension test (TST); type: in vivo; conditions: for immobility time in TST: acute i.p. pretreatment, ST-2300 10 or 15 mg/kg, PIM 5–15 mg/kg, FLX 10 mg/kg, vs saline controls, C57BL/6 mice, 6 min
Description: Inbred adult male C57BL/6 mice (aged 10–12 weeks and weighing 20–25 g) were obtained from the animal facility in the College of Medicine and Health Sciences, United Arab Emirates University. The animals were maintained in a separate air-conditioned room with controlled temperature and humidity (24 ± 2 °C and 55 ± 15%, respectively), with a 12 h light/dark cycle, and ad libitum to food and water. All the experiments were performed between 9.00 am and 3.00 pm. The procedures were approved by the Institutional Animal Ethics Committee of College of Medicine and Health Sciences/United Arab Emirates University (Approval No. ERA-2019-6010). To reduce the suffering of the animals, a minimum number of animals were used in this study, whereas the objectives were not compromised.
These experiments provide the first behavioral assessment of the ST-2300 in anxiety-like and depression-like behaviors in mice. All doses are expressed in terms of the free base of all test compounds. The drugs used in the current study were dissolved in saline and injected i.p. at a volume of 1 mL/kg. All experimental procedures were conducted in a blinded fashion in which the experimenter was uninformed about the specific treatment groups to which an animal group belonged. Saline, ST-2300 (5, 10, and 15 mg/kg), PIM (5, 10, and 15 mg/kg), FLX (10 mg/kg), RAM (10 mg/kg), and DZP (1 mg/kg) were injected i.p. 30–45 min before the beginning of the behavioral experiments.
This experimental protocol was followed as previously described, however with slight modifications. Each mouse was suspended on the edge of a rod 50 cm above a table top using adhesive Scotch tape placed approximately 1 cm from the tip of the tail. Tail climbing was prevented by passing the mouse’s tail through a small plastic cylinder prior to suspension, as described by Can et al.. The duration of immobility was manually scored for a 6 min observation period. Mice were considered immobile only when they hung down passively and were completely motionless. The parameter recorded was the number of seconds spent immobile.

D3R = tested on: D3R; set-up: method as in earlier work; conditions: ref 19 (Vanover et al.); cited from earlier work
H1R = tested on: H1R; set-up: method as in earlier work; conditions: ref 19 (Vanover et al.); cited from earlier work

SMILES: CN1CCC(N(Cc2ccc(F)cc2)C(=O)NCc2ccc(OCCCN3CCCCC3)cc2)CC1 [ST-2300, 1-(4-Fluorobenzyl)-1-(1-methylpiperidin-4-yl)-3-{4-[3-(piperidin-1-yl)propoxy]benzyl}urea]
pKi (human 5-HT1A): < 5.00
immobility time in TST, co-administration of RAM (C57BL/6 mice; ST-2300 10 mg/kg i.p. co-administered with H3R agonist RAM 10 mg/kg i.p., vs ST-2300 alone): reversed by systemic co-administration with the CNS-penetrant H3R agonist RAM
immobility time in TST (C57BL/6 mice): significantly reduced the immobility time

pKi (human 5-HT1A): < 5.00
SMILES: CC(C)COc1ccc(CNC(=O)N(Cc2ccc(F)cc2)C2CCN(C)CC2)cc1 [Pimavanserin, reference compound]
immobility time in TST (C57BL/6 mice): failed to affect the overall immobility time
inhibition at 10 µM, D3R (D3R): inhibition at 10 µM: 60% ^a
inhibition at 10 µM, H1R (H1R): inhibition at 10 µM: <50% ^a
